According to patent US10597388B2, “Pyridazinone herbicides” (FMC CORPORATION, priority 2014, dated 2020):

Tests used:
Type in all cases: in vivo
[1] = tested on: barley, winter (winter barley, Hordeum vulgare); test: Test D controlled growth environment herbicide test, pre- and postemergence
Summary of the method: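 Pre-emergence: seeds sown in silt loam soil were sprayed with compound in a non-phytotoxic solvent mix containing surfactant. Post-emergence: plants at 2 to 18 cm (1- to 4-leaf stage) in peat moss/vermiculite medium got the same formulation. Visual 0–100 rating versus controls after 14 to 21 d.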

[2] = tested on: arrowleaf sida (Sida rhombifolia); test: Test E greenhouse herbicide test, pre- and postemergence
Summary of the method: (§1)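 Visual rating vs untreated controls, 0 = no effect, 100 = complete control, after 14–21 d greenhouse. Pre: seeded silt loam treated with surfactant-containing solvent formulation. Post: 1–4-leaf plants (2–18 cm) in peat/vermiculite medium.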

[3] = tested on: dayflower (Virginia (VA) dayflower, Commelina virginica); test: as above
Summary of the method: as §1

[4] = tested on: johnsongrass (Sorghum halepense); test: as above; conditions: Preemergence
Summary of the method: as §1

[5] = tested on: lambsquarters (Chenopodium album); test: as above; conditions: Preemergence
Summary of the method: as §1

[6] = tested on: nightshade (eastern black nightshade, Solanum ptycanthum); test: as above; conditions: Preemergence
Summary of the method: as §1

[7] = tested on: sandbur (southem sandbur, Cenchrus echinatus); test: as above
Summary of the method: as §1

soybean (Glycine max) = test: as above
Summary of the method: as §1

[8] = tested on: surinam grass (Brachiaria decumbens); test: as above; conditions: Preemergence
Summary of the method: as §1

[9] = tested on: waterhemp_RES1 (ALS & Triazine resistant common waterhemp, Amaranthus rudis); test: Test E greenhouse herbicide test, postemergence
Summary of the method: (§2)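 Greenhouse test, 14–21 d after postemergence treatment of 2–18 cm plants; percent control was assessed visually, 0–100, against untreated plants.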

[10] = tested on: waterhemp_RES2 (ALS & HPPD resistant common waterhemp, Amaranthus rudis); test: Test E greenhouse herbicide test, postemergence
Summary of the method: as §2

[11] = 62 g ai/ha, Postemergence, scale 0 to 100 (0 no effect, 100 complete control)
[12] = 62 g ai/ha, Preemergence, scale 0 to 100 (0 no effect, 100 complete control)
[13] = 125 g ai/ha, Postemergence, scale 0 to 100 (0 no effect, 100 complete control)
[14] = 125 g ai/ha, Preemergence, scale 0 to 100 (0 no effect, 100 complete control)
[15] = 250 g ai/ha, Postemergence, scale 0 to 100 (0 no effect, 100 complete control)
[16] = Postemergence, 31 g ai/ha, visual, scale 0 no effect to 100 complete control
[17] = Preemergence, 31 g ai/ha, scale 0 to 100, 0 no effect, 100 complete control
[18] = Preemergence, 250 g ai/ha, visual, scale 0 no effect to 100 complete control
[19] = 62 g ai/ha, scale 0 to 100 (0 no effect, 100 complete control)
[20] = 125 g ai/ha, scale 0 to 100 (0 no effect, 100 complete control)
[21] = 31 g ai/ha, scale 0 to 100, 0 no effect, 100 complete control
[22] = 250 g ai/ha, visual, scale 0 no effect to 100 complete control
[23] = 31 g ai/ha, visual, scale 0 no effect to 100 complete control
[24] = 250 g ai/ha, scale 0 to 100 (0 no effect, 100 complete control)

CCOC(=O)Oc1c(C)nn(C)c(=O)c1-c1c(C)sc2c(C)cc(C)cc12 [Compound 83]
Barley, Winter plant response rating ([1]; Postemergence, 31 g ai/ha, scale 0 to 100 (0 no effect, 100 complete control)): 0
Plant response rating, Barley, Winter ([1]; Postemergence, 125 g ai/ha, visual rating on scale 0 (no effect) to 100 (complete control), 14 to 21 d): 0
Plant response rating, Barley, Winter ([1]; Postemergence, 250 g ai/ha, scale 0 to 100 (0 no effect, 100 complete control)): 15
Plant response rating (scale of 0 to 100), Barley, Winter ([1]; Preemergence, 31 g ai/ha): 0
Plant response rating, Barley, Winter ([1]; Preemergence, 62 g ai/ha, scale 0 to 100 (0 no effect, 100 complete control)): 0
Plant response rating, Barley, Winter ([1]; Preemergence, 125 g ai/ha, scale 0 to 100 (0 no effect, 100 complete control)): 0
Plant response rating, Barley, Winter ([1]; Preemergence, 250 g ai/ha, scale 0 to 100 (0 no effect, 100 complete control)): 40
Plant response rating, Barley, Winter ([1]; postemergence, 62 g ai/ha, scale 0 to 100, 0 no effect, 100 complete control): 0
Plant response rating, Arrowleaf Sida [2, 11]: 50
Plant response rating, Arrowleaf Sida [2, 12]: 25
Plant response rating, Arrowleaf Sida [2, 13]: 60
Plant response rating, Arrowleaf Sida [2, 14]: 35
Plant response rating, Arrowleaf Sida [2, 15]: 60
Plant response rating, Arrowleaf Sida [2, 16]: 50
Plant response rating, Arrowleaf Sida [2, 17]: 15
Plant response rating, Arrowleaf Sida [2, 18]: 65
Plant response rating, Dayflower, VA [3, 11]: 60
Plant response rating, Dayflower, VA [3, 12]: 10
Plant response rating, Dayflower, VA [3, 13]: 75
Plant response rating, Dayflower, VA [3, 14]: 25
Plant response rating, Dayflower, VA [3, 15]: 70
Plant response rating, Dayflower, VA [3, 16]: 50
Plant response rating, Dayflower, VA [3, 17]: 0
Plant response rating, Dayflower, VA [3, 18]: 65
Plant response rating, Johnsongrass [4, 19]: 0
Plant response rating, Johnsongrass [4, 20]: 0
Plant response rating, Johnsongrass [4, 21]: 0
Plant response rating, Johnsongrass [4, 22]: 20
Plant response rating, Lambsquarters [5, 19]: 98
Plant response rating, Lambsquarters [5, 20]: 100
Plant response rating, Lambsquarters [5, 21]: 100
Plant response rating, Lambsquarters [5, 22]: 100
Plant response rating, Nightshade [6, 19]: 50
Plant response rating, Nightshade [6, 20]: 100
Plant response rating, Nightshade [6, 21]: 35
Plant response rating, Nightshade [6, 22]: 100
Plant response rating, Sandbur [7, 12]: 70
Plant response rating, Sandbur [7, 13]: 65
Plant response rating, Sandbur [7, 14]: 75
Plant response rating, Sandbur [7, 15]: 70
Plant response rating, Sandbur [7, 16]: 40
Plant response rating, Sandbur [7, 17]: 20
Plant response rating, Sandbur [7, 18]: 80
Plant response rating, Soybean (soybean (Glycine max); [12]): 0
Plant response rating, Soybean (soybean (Glycine max); [13]): 0
Plant response rating, Soybean (soybean (Glycine max); [14]): 0
Plant response rating, Soybean (soybean (Glycine max); [15]): 15
Plant response rating, Soybean (soybean (Glycine max); [16]): 0
Plant response rating, Soybean (soybean (Glycine max); [17]): 0
Plant response rating, Soybean (soybean (Glycine max); [18]): 0
Plant response rating, Surinam Grass [8, 19]: 60
Plant response rating, Surinam Grass [8, 20]: 85
Plant response rating, Surinam Grass [8, 21]: 65
Plant response rating, Surinam Grass [8, 22]: 95
Plant response rating, Waterhemp_RES1 [9, 23]: 70
Plant response rating, Waterhemp_RES1 [9, 20]: 80
Plant response rating, Waterhemp_RES1 [9, 24]: 70
Plant response rating, Waterhemp_RES2 [10, 23]: 30
Plant response rating, Waterhemp_RES2 [10, 20]: 40
Plant response rating, Waterhemp_RES2 [10, 24]: 50
